# ChEMBL document CHEMBL1129232, “Synthesis and anti-HIV activity of dihydroisoxazole 6-chloropurine and adenine” (Bioorg Med Chem Lett, 1996)
# Legend:
# [1] = Compound was evaluated for cytotoxicity against human lymphocytes (PBM cells); assay type: functional, cell-based; settings: PBMC
# [2] = Median effective dose required for anti HIV-1 activity in PBM cells(Human lymphocytes); assay type: functional, cell-based; settings: PBMC
# [3] = test system: CCRF-CEM; experiment: Compound was evaluated for cytotoxicity against CEM cells; assay type: functional, cell-based, Homo sapiens
# [4] = test system: Vero; experiment: Compound was evaluated for cytotoxicity against Vero cells; assay type: functional, cell-based; settings: Chlorocebus sabaeus
EC50 [2] [µM],Structure (SMILES),IC50 [1] [µM],"IC50 ([3]; Homo sapiens, CCRF-CEM) [µM]",IC50 [4] [µM],IC50 ([3]; ccrf-cem) [µM]
54.8,Nc1ncnc2c1ncn2C1CC(CO)=NO1 (stereo unspecified),> 100,> 100,> 100,
34.6,OCC1=NOC(n2cnc3c(Cl)ncnc32)C1 (stereo unspecified),73.5,35.2,> 100,

Structure (SMILES),EC50 [2] [µM],IC50 [1] [µM],"IC50 ([3]; Homo sapiens, CCRF-CEM) [µM]",IC50 [4] [µM],IC50 ([3]; ccrf-cem) [µM]
Cc1cn([C@H]2C[C@H](N=[N+]=[N-])[C@@H](CO)O2)c(=O)[nH]c1=O [ZIDOVUDINE],0.004,> 100,,,14
